For orientation: Tmax means the time from dosing to the highest level. The Cmax is the peak of the concentration-time curve. In general, viability refers to the share of living cells, or the viability signal relative to a control.

The record followed here is patent publication US12215067B2, “Chemical compounds targeting the eye and use thereof in the treatment of eye diseases” (BIOPHYTIS, priority 2019, dated 2025).

Data set [1] can be described thus: Pharmacokinetic study via oral administration in mice, ocular concentrations. As to conditions: for Tmax: C57BL/6, mouse, eye, po; for Eye Exposure 50 mg/kg p.o. AUC: Table 3, repeats the eye exposure of Table 2. The format is in vivo, mice C57BL/6. The protocol: (§1) The pharmacokinetic study of the chemical compounds (C) following the oral administration thereof was conducted using mice C57BL/6 (January, 53940 The Genest Saint Isle, France). The chemical compounds derived from norbixin (C) were administered at a dose of 50 mg/kg of body weight. After administration, the blood was sampled at the tail at t=0.25 h; 0.5 h; 1 h; 3 h; 6 h and 8 h. The blood samples were centrifuged and the plasmas taken. The dosage of the plasma samples made it possible to determine pharmacokinetic parameters, namely Cmax, which corresponds to the maximum concentration observed after the administration of the molecule, Tmax which is the time required to reach maximum concentration after administration of the molecule and the AUC: the area under the curve which corresponds to the plasma exposure (FIG. 2).
In parallel, the ocular concentrations of the chemical compounds derived from norbixin (C) were dosed in the following way (FIG. 1): both eyes of each mouse were taken in Precellys tubes and stored at −80° C. until the time of dosing. The eyes are then ground in the Precellys tubes with a bench homogenizer, Fast-prep (Fischer Scientific, Hampton, United States) in a mixture of organic solvents, in a first step with 500 μL of chloroform/methanol (1/1, v/v) then 500 μL of chloroform/dichloromethane (1/1, v/v). The supernatants are recovered at each step and transferred to a 96-well plate of 2 mL.
For the quantification of the chemical compounds C, a calibration curve is carried out with 8 standards (5 to 5,000 ng/mL) in the same organic solvent mixtures and transferred (100 μL) to the 96-well plate of 2 mL.
The supernatants and standards are evaporated in a EZ2 (Genevac, Ipswich, United Kingdom), without heating, then taken with 100 μL of DMSO/methanol (20:80, v/v) before being transferred to a 96-well plate of 200 μL.
(§2) The LC-MSMS analysis is carried out with a HPLC 1200 Infinity chain (Agilent Technologies, Santa-Clara, United States), a UV detector and a mass spectrometer QQQ6420 (Agilent Technologies Santa-Clara, United States). The injection volume is 5 μL. The chemical compounds C are eluted on an inverse phase column C18 (2.1*50 mm, particles 3 μm; Ace-C18-Excel, AIT) with a gradient of acetonitrile and water (containing 0.1% formic acid) and a flow rate of 0.3 mL/min. The conditions of the gradient can change according to the chemical compound C analyzed. The UV detector analyzes at 460 nm and the mass spectrometer analyzed in Mode MRM—Positive.
(§3) Table 2 discloses the pharmacokinetic results of the chemical compounds C following the administration p.o. 50 mg/kg in D-α-Tocopheryl polyethylene glycol 1000 succinate (VitE-TPGS) 20% in a sodium bicarbonate buffer (0.1M).

Data set [2] in a line: Pharmacokinetic study via oral administration in mice, plasma concentrations. The data set is classed as in vivo, mice C57BL/6. As to conditions: C57BL/6, mouse, in vivo, po, 50 mg/kg. The method, then:
as §1, §2, §3

The subject of data set [3] is primary cultures of RPE of adult pigs. Nature of the data set: In vitro photoprotection of RPE cells illuminated with blue light in the presence of A2E. As to conditions: Sus scrofa, RPE, A2E 30 μM, survival 24 h after illumination; for viability at 5 µM: 5 μM compound; for viability at 10 µM: 10 μM compound; for viability at 20 µM: 20 μM compound. The data set is classed as cell-based, pig. From the text:
In addition to better distribution in the target-tissue, selecting new compounds must also be based on good photo-protective activity that limits the loss of the cells of the RPE and thus reducing the retinal degeneration observed during the AMD and other degenerative diseases such as Retinitis pigmentosa and Stargardt's disease. At the cellular level, on cultures of cells the RPE coming from pig retina, Fontaine et al. (2016) have shown that a treatment with norbixin (BIO201) protects the cells of the RPE against apoptosis following an illumination in the presence of A2E (80% survival 24 h after exposure). This same screening test according to the percentage of photoprotection was used so as to determine its modulation by and the chemical compounds derived from norbixin (C) object of the present invention in comparison with the photo-protective effect of norbixin and characterize these modulations from a statical standpoint.
The test in vitro described hereinabove and intended to study the photo-protective effect of norbixin was used so as to quantify the photo-protective effects of the various chemical compounds derived from norbixin (C) on the cells of the RPE illuminated with blue light in the presence of A2E (FIG. 3). The photo-protective effect of the molecules was evaluated in a phototoxicity cellular model induced by treatment by A2E followed by an illumination with blue light. The term “blue radiation” means the radiation corresponding to the blue band of the visible light spectrum, i.e. of a wavelength comprised between 435 and 490 nm. This model uses primary cultures of RPE of adult pigs. The cell survival is quantified thanks to a test of cellular viability. At −48 h the compounds to be tested (in solution at 5 mM in the DMSO) are added to obtain the final concentrations of 1 to 20 μM) then at −19 h of the A2E (final concentration 30 μM) and the cells (time 0 h) are illuminated. 24 h after the survival of the cells is measured. The acquisition of images, as well as the processing thereof, are carried out using a fluorescence microscope controlled by the Metamorph software and a dedicated quantification program. The experiments are conducted on a 96-well microplate in quadruplicate and the experiment is reproduced at least four times. The results are expressed in the form of a ratio representing the number of living cells in the wells treated by the molecules to be tested, divided by the number of living cells in the controlled wells (treated by the dilution medium without A2E). This test made it possible hereinabove to reveal the photo-protective activity of norbixin (Fontaine et al. 2016).

Setting [4] is: mice, p.o. 50 mg/kg in VitE-TPGS 20% in sodium bicarbonate buffer (0.1M).

For the compound `CC(=C/C=C/C(C)=C/C=C/C=C(C)/C=C/C=C(C)/C=C/C(=O)N1CCCC1)/C=C/C(=O)O` [C7, 1-pyrrolidinamido-(2E,4E,6E,8E,10E,12E,14E,16Z,18E)-4,8,13,17-tetramethylicosa-2,4,6,8,10,12,14,16,18-nonaenedioate], in data set [1] (setting [4]), the time to peak (Tmax) turned out to be 30 min and the “Eye CMax” value is on record as 7 ng/eye. Besides, the “Eye Exposure 50 mg/kg p.o. AUC” value in data set [1] is reported as 18.5 ng · h/eye. In data set [2], the Cmax came to 6890 ng/mL, the “Plasma Exposure” value worked out at 17.29 µg·h/mL and the Tmax came out at 30 min. For the same compound, in data set [3], the viability at 5 µM is 5.2% and the viability at 10 µM is 52.8%.
Take `COCCNC(=O)/C=C/C(C)=C/C=C/C(C)=C/C=C/C=C(C)/C=C/C=C(C)\C=C\C(=O)O` [C1, 1-[2-methoxyethanamido](2E,4E,6E,8E,10E,12E,14E,16Z,18E)-4,8,13,17-tetramethylicosa-2,4,6,8,10,12,14,16,18-nonaenedioate]: in data set [1] (setting [4]), the time to peak (Tmax) was 30 min and the “Eye CMax” value is recorded as 10.7 ng/eye. The “Eye Exposure 50 mg/kg p.o. AUC” value in data set [1] was 26.6 ng · h/eye. Besides, in data set [2], the concentration peaked (Cmax) at 18700 ng/mL, the “Plasma Exposure” value stood at 52.66 µg·h/mL and the Tmax is 30 min. Besides, in data set [3], the viability at 5 µM was 55%, the viability at 10 µM turned out to be 67.7% and the viability at 20 µM stood at 77.8%.
Turning to `CC(=C/C=C/C(C)=C/C=C/C=C(C)/C=C/C=C(C)/C=C/C(=O)N1CCC(O)C1)/C=C/C(=O)O` (stereo in doubt) [C11, 1-[(R)-3-hydroxypyrrolidinamido](2E,4E,6E,8E,10E,12E,14E,16Z,18E)-4,8,13,17-tetramethylicosa-2,4,6,8,10,12,14,16,18-nonaenedioate], in data set [1] (setting [4]), the Tmax was determined as 60 min and the “Eye CMax” value turned out to be 47.7 ng/eye. Also, in data set [1], the “Eye Exposure 50 mg/kg p.o. AUC” value is 238.4 ng · h/eye. In data set [2], the peak concentration (Cmax) amounted to 35900 ng/mL, the “Plasma Exposure” value came to 190 µg·h/mL and the Tmax turned out to be 60 min. In addition, in data set [3], the viability at 5 µM came to 21.1%, the viability at 10 µM stood at 39.3% and the viability at 20 µM turned out to be 63.4%.
For `CC(=C/C=C/C(C)=C/C=C/C=C(C)/C=C/C=C(C)/C=C/C(=O)N1CCCOCC1)/C=C/C(=O)O` [C5, 1[1,4-oxazepanamido](2E,4E,6E,8E,10E,12E,14E,16Z,18E)-4,8,13,17-tetramethylicosa-2,4,6,8,10,12,14,16,18-nonaenedioate], in data set [1] (setting [4]), the Tmax came to 30 min and the “Eye CMax” value is listed as 31.4 ng/eye. Further, the “Eye Exposure 50 mg/kg p.o. AUC” value in data set [1] was 188.7 ng · h/eye. Further, in data set [2], the highest concentration (Cmax) worked out at 37700 ng/mL, the “Plasma Exposure” value amounted to 299.9 µg·h/mL and the time of peak concentration (Tmax) came out at 60 min. In addition, in data set [3], the viability at 5 µM was 11.3%, the viability at 10 µM was 25.6% and the viability at 20 µM came to 36%.
With `CC(=C/C=C/C(C)=C/C=C/C=C(C)/C=C/C=C(C)/C=C/C(=O)NCCCN1CCOCC1)/C=C/C(=O)O` [C8], in data set [1] (setting [4]), the Tmax turned out to be 60 min and the “Eye CMax” value is given as 56.8 ng/eye. Also, in data set [1], the “Eye Exposure 50 mg/kg p.o. AUC” value was determined as 472.4 ng · h/eye. Further, in data set [2], the Cmax came out at 59800 ng/mL, the “Plasma Exposure” value came to 173.74 µg·h/mL and the Tmax turned out to be 30 min. In addition, in data set [3], the viability at 5 µM was found to be 28.6%, the viability at 10 µM worked out at 33.4% and the viability at 20 µM came to 75.2%.
Regarding `CC(=C/C=C/C(C)=C/C=C/C=C(C)/C=C/C=C(C)/C=C/C(=O)N1CCC(O)CC1)/C=C/C(=O)O` [C12, 1-[4-hydroxypiperidinamido](2E,4E,6E,8E,10E,12E,14E,16Z,18E)-4,8,13,17-tetramethylicosa-2,4,6,8,10,12,14,16,18-nonaenedioate], in data set [1] (setting [4]), the time of peak concentration (Tmax) was found to be 60 min and the “Eye CMax” value is listed as 50.7 ng/eye. Further, in data set [1], the “Eye Exposure 50 mg/kg p.o. AUC” value amounted to 538.4 ng · h/eye. In data set [2], the maximum concentration (Cmax) turned out to be 29300 ng/mL, the “Plasma Exposure” value amounted to 186.3 µg·h/mL and the Tmax is 30 min. In data set [3], the viability at 5 µM worked out at 7.7%, the viability at 10 µM is 14.3% and the viability at 20 µM amounted to 59.6%.
With `CC(=C/C=C/C(C)=C/C=C/C=C(C)/C=C/C=C(C)/C=C/C(=O)N1C[C@@H](C)O[C@@H](C)C1)/C=C/C(=O)O` [C15], in data set [1] (setting [4]), the Tmax came out at 30 min and the “Eye CMax” value is 22.8 ng/eye. The “Eye Exposure 50 mg/kg p.o. AUC” value in data set [1] turned out to be 108.5 ng · h/eye. Besides, the “Eye Exposure” value in data set [1] (mice, p.o. 50 mg/kg in VitE-TPGS 20% in sodium bicarbonate buffer (0.1M), area under the curve) was found to be 108.5 ng · h/eye. For the same compound, in data set [2], the concentration peaked (Cmax) at 17300 ng/mL, the “Plasma Exposure” value was 46.99 µg·h/mL and the Tmax is 30 min. For the same compound, in data set [3], the viability at 5 µM worked out at 5.4%, the viability at 10 µM was 10% and the viability at 20 µM was found to be 58.5%.
Take `CC(=C/C=C/C(C)=C/C=C/C=C(C)/C=C/C=C(C)/C=C/C(=O)NCCc1ccc(O)cc1)/C=C/C(=O)O` [C16, 1-[4-hydroxyphenylethanamido](2E,4E,6E,8E,10E,12E,14E,16Z,18E)-4,8,13,17-tetramethylicosa-2,4,6,8,10,12,14,16,18-nonaenedioate]: in data set [1] (setting [4]), the Tmax amounted to 30 min and the “Eye CMax” value is on record as 7.4 ng/eye. Further, the “Eye Exposure 50 mg/kg p.o. AUC” value in data set [1] worked out at 8.7 ng · h/eye. In addition, in data set [2], the peak level (Cmax) was 10500 ng/mL, the “Plasma Exposure” value was 13.23 µg·h/mL and the Tmax turned out to be 60 min. Besides, in data set [3], the viability at 5 µM came out at 70.2%, the viability at 10 µM stood at 81.7% and the viability at 20 µM turned out to be 26.8%.
Turning to `CC(=C/C=C/C(C)=C/C=C/C=C(C)/C=C/C=C(C)/C=C/C(=O)NCC(C)(C)N1CCOCC1)/C=C/C(=O)O` [C13, 1-[2-methyl-2-(4-morpholinyl)propylamido](2E,4E,6E,8E,10E,12E,14E,16Z,18E)-4,8,13,17-tetramethylicosa-2,4,6,8,10,12,14,16,18-nonaenedioate], in data set [1] (setting [4]), the Tmax was found to be 60 min and the “Eye CMax” value came to 60.7 ng/eye. Also, the “Eye Exposure 50 mg/kg p.o. AUC” value in data set [1] is listed as 461.1 ng · h/eye. Besides, in data set [2], the concentration peaked (Cmax) at 27900 ng/mL, the “Plasma Exposure” value turned out to be 139.7 µg·h/mL and the Tmax worked out at 30 min. Also, in data set [3], the viability at 5 µM is 8%, the viability at 10 µM is 0.5% and the viability at 20 µM was found to be 8%.
